Source: ChEMBL document CHEMBL1135867, “Synthesis, photobiological activity and photoreactivity of methyl-thieno-8-azacoumarins, novel bioisosters of psoralen” (Bioorg Med Chem Lett, 2002)
Activity calls are given as the source filed them. The calls are words filed in the database; no cut-off is given here.

Assays:
[1] = test system: HL-60; assay: Compound was evaluated for its antiproliferative activity after UVA irradiation on human tumor HL-60 cell line; assay type: functional, cell-based; details: HL-60, light or radiation study
[2] = test system: HeLa; assay: Compound was evaluated for its antiproliferative activity after UVA irradiation on human tumor HeLa cell line; assay type: functional, cell-based; details: light or radiation study
[3] = organism: Cavia porcellus; assay: Skin phototoxicity was evaluated after UVA irradiation at a dose of 0.2 (umol cm e-2) and formation of erythema was reported; Absent; assay type: functional, organism-based
[4] = test system: Cavia porcellus; assay: Skin phototoxicity was evaluated after UVA irradiation at a dose of 0.05 (umol cm e-2) and formation of erythema was reported; Strong (with edema); assay type: functional, organism-based

IC50 [1] [µM] | IC50 [2] [µM] | SMILES | Formation of erythema [3] | Formation of erythema [4]
7.3 | > 20 | Cc1sc2nc3oc(=O)cc(C)c3cc2c1C | inactive | 
2.2 | 8.9 | Cc1cc(=O)oc2nc3scc(C)c3cc12 | inactive | 
 |  | COc1c2occc2cc2ccc(=O)oc12 |  | Active
